Experimental data from patent US4087418A, “Hexapeptides and methods for their production” (Parke, Davis & Company, priority 1976, dated 1978).

Test system: LRF (luteinizing hormone release factor) induced luteinizing hormone (LH) release
Experiment: In vitro LRF antagonist test in rat anterior pituitary cell cultures
Format: cell-based
Details: LRF alone, Molar Conc. 2.5×10^-10 (stimulation control)
Description: Hexapeptides of this invention were screened for LRF antagonist activity in vitro using rat anterior pituitary cell cultures as described by Vale et. al. [Endocrinology, 91, 562 (1972)]. The inhibition of LRF (luteinizing hormone release factor) induced luteinizing hormone (LH) release into the culture medium is the endpoint in this in vitro bioassay.

## LRF Control: luteinizing hormone releasing factor, also referred to as luteinizing hormone releasing hormone, LH-RH; stimulates secretion of luteinizing hormone (QHWSYGLRPG; Gonadoliberin-1; UniProt P01148 24-33, looked up)
  LH Value: 38.98 ng/mL
